Measured values from publication PMC5934329 (Neuropharmacology, 2017).
Several values for one entry are separate records, joined by “and”; a condition that tells them apart may be missing. Identical values can stand only once. Like-named read-outs stand apart in the source and are kept apart here.

How the values were obtained:
male C57BL/6 inbred mice = test: THC drug discrimination; type: in vivo; settings: for Effect on response rate: compared to vehicle; for ED50 for substitution in THC discrimination: mice trained with 5.6 mg/kg THC i.p., value (95% confidence limits); for ED50: Mus musculus, ip, read-out: ED50 for substitution in THC discrimination
human CB1 (hCB1) = human CB1 (hCB1) (Homo sapiens, UniProt P21554); test: [3H]CP55,940 displacement binding at hCB1 membranes
human CB2 (hCB2) = human CB2 (hCB2) (Homo sapiens, UniProt P34972); test: [3H]CP55,940 displacement binding at hCB2 membranes
hCB2 receptor = hCB2 receptor (Homo sapiens, UniProt P34972); test: Agonist-stimulated [35S]GTPγS binding, hCB2 membranes; settings: for Emax: read-out: [35S]GTPγS Turnover CB2 Emax
hCB1 receptor = hCB1 receptor (Homo sapiens, UniProt P21554); test: Agonist-stimulated [35S]GTPγS binding, hCB1 membranes; settings: for Emax: read-out: [35S]GTPγS Turnover CB1 Emax
CB1 receptors = settings: read-out: CB1 affinity; rat CB1 receptors ref Huffman et al., 2005; cited from earlier work

Chain of hCB1 receptor (P21554 whole entry): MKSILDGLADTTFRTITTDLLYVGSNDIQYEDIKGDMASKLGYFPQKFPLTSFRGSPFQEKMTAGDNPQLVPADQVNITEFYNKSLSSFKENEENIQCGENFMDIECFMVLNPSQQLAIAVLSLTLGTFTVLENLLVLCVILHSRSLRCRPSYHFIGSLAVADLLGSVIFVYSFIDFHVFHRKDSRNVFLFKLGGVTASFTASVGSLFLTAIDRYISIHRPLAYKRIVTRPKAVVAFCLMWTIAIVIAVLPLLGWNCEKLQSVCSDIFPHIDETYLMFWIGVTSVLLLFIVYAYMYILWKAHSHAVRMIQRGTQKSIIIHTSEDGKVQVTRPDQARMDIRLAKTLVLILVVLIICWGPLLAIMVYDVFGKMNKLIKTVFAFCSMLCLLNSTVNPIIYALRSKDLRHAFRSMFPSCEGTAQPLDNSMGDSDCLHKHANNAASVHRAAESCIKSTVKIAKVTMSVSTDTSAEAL
Chain of human CB1 (hCB1) (P21554 whole entry): as above
Chain of hCB2 receptor (P34972 whole entry): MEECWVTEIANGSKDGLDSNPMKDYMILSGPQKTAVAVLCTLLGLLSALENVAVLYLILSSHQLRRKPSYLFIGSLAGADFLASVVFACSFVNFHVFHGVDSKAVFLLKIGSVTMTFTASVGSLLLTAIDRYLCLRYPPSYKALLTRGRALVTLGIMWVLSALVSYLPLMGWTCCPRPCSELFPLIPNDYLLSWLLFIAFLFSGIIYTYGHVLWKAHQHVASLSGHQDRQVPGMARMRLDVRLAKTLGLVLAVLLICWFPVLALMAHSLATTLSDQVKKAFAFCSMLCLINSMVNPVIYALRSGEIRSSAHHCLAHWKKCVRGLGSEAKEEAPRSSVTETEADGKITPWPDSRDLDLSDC
Chain of human CB2 (hCB2) (P34972 whole entry): as above

Row | SMILES | ED50 for substitution in THC discrimination (male C57BL/6 inbred mice) | Ki (human CB1 (hCB1)) [nM] | Ki (human CB2 (hCB2)) [nM] | EC50 (hCB2 receptor) [nM] | Emax (hCB2 receptor) [%] | EC50 (hCB1 receptor) [nM] | Emax (hCB1 receptor) [%] | ED50 (male C57BL/6 inbred mice) [µmol/kg] | further results
1 | CCCCCCC(C)(C)c1ccc(C2CC(O)CCC2CCCO)c(O)c1 (single isomer, unassigned; (-)) [CP55,940, (-)-cis-3-[2-Hydroxy-4-(1,1-dimethylheptyl)phenyl]-trans-4-(3-hydroxypropyl)cyclohexanol, reference compound] | 0.07 (0.04-0.14) μmol/kg | – | – | – | – | – | – | – | Substitution for THC in drug discrimination (male C57BL/6 inbred mice; 0.3 mg/kg): full substitution; Effect on response rate (male C57BL/6 inbred mice; 0.3 mg/kg): reductions in response rates
2 | CCCCCn1cc(C(=O)c2ccccc2I)c2ccccc21 [AM-679, (2-iodophenyl)(1-pentyl-1H-indol-3-yl)methanone] | – | 39.6 | 2.1 | 19 | 31.1 | 881 | 132 | 5.8 | –
3 | CN1CCCC[C@@H]1Cn1cc(C(=O)c2cccc3ccccc23)c2ccccc21 [AM-1220, (R)-(1-((1-methylpiperidin-2-yl)methyl)-1H-indol-3-yl)(naphthalen-1-yl)methanone] | – | – | 0.26 | – | – | – | 132 | 0.26 | [35S]GTPγS Turnover CB2 Emax (hCB2 receptor; % maximal increase over basal, hCB2, value (SEM)): Not determinable; [35S]GTPγS Turnover CB2 EC50 (hCB2 receptor; hCB2 membranes, value (SEM)): Not determinable
4 | N#CCCCCn1cc(C(=O)c2cccc3ccccc23)c2ccccc21 [AM-2232, 5-(3-(1-naphthoyl)-1H-indol-1-yl)pentanenitrile] | – | 14.5 | 11.2 | 406 | 31.3 | 833 | 204 | 0.54 | Substitution for THC in drug discrimination (male C57BL/6 inbred mice; 1.0 mg/kg): full substitution; Effect on response rate (male C57BL/6 inbred mice; 1.0 mg/kg): reductions in response rates
5 | CN1CCCCC1Cn1cc(C(=O)c2ccccc2I)c2ccccc21 (stereo not shown) [AM-2233, 1-[(N-methylpiperidin-2-yl)methyl]-3-(2-iodobenzoyl)indole] | – | 6.63 | 0.48 | 715 | 21 | 213 | 144 | 0.42 | –
6 | CCc1ccc(C(=O)c2cn(CCCCCF)c3ccccc23)c2ccccc12 [EAM-2201, (4-ethyl-1-naphthalenyl)[1-(5-fluoropentyl)-1H-indol-3-yl]-methanone] | – | 0.41 | 0.38 | 91.9 | 40.2 | 46.8 | 270 | 0.04 | Effect on response rate (male C57BL/6 inbred mice; across the dose range tested): no doses produced significant differences from vehicle
7 | CCCCCn1cc(C(=O)c2ccc(CC)c3ccccc23)c2ccccc21 [JWH-210, 4-ethylnaphthalen-1-yl-(1-pentylindol-3-yl)methanone] | – | – | 0.94 | 51 | 43.6 | 116 | 287 | 0.33 | –
8 | CCCCCn1cc(C(=O)Cc2ccccc2C)c2ccccc21 [JWH-251, 2-(2-methylphenyl)-1-(1-pentyl-1H-indol-3-yl)ethenone] | 4.07 (3.11-5.31) μmol/kg | – | – | – | – | – | – | – | Ki (CB1 receptors): 29 ± 3 nM; Ki (human CB1 (hCB1); read-out: CB1 Ki, [3H]CP55,940 displacement, hCB1, value (SEM)): 16 nM and 16.2 nM; Ki (human CB2 (hCB2); read-out: CB2 Ki, [3H]CP55,940 displacement, hCB2, value (SEM)): 15 nM and 15.1 nM; EC50 (hCB2 receptor; read-out: [35S]GTPγS Turnover CB2 EC50, hCB2 membranes, value (SEM)): 1520 nM; [35S]GTPγS Turnover CB1 Emax (hCB1 receptor; % maximal increase over basal, hCB1, value (SEM)): 227.6 (31.6) 3%; EC50 (hCB1 receptor; read-out: [35S]GTPγS Turnover CB1 EC50, hCB1 membranes, value (SEM)): 918 nM
9 | Cc1ccc(C(=O)c2cn(CCCCCF)c3ccccc23)c2ccccc12 [MAM-2201, (1-(5-fluoropentyl)-1H-indol-3-yl)(4-methyl-1-naphthalenyl)-methanone] | – | 1.86 | 0.59 | 1.93 | 23.2 | 36.1 | 310 | 0.11 | Potency for stimulating [35S]GTPγS turnover at CB2 relative to CP55,940 (hCB2 receptor; more potent than CP55,940): approximately 4 fold; Substitution for THC in drug discrimination (male C57BL/6 inbred mice; 0.3 mg/kg): full substitution; Effect on response rate (male C57BL/6 inbred mice; 0.3 mg/kg): reductions in response rates
10 | CCCCCc1cc(O)c2c(c1)OC(C)(C)[C@@H]1CCC(C)=C[C@@H]21 [THC, Δ^9-tetrahydrocannabinol, reference compound] | 4.96 (3.41-7.21) μmol/kg | – | – | – | – | – | – | – | Effect on response rate (male C57BL/6 inbred mice; across the dose range tested): did not alter response rates
